Measurements: patent US7148237B2, “Nitrogen-containing heteroaryl compounds having HIV integrase inhibitory activity” (Shionogi & Co., Ltd., priority 2001, dated 2006)

Columns and labels:
[1] = target: integrase (Human immunodeficiency virus type 1 group M subtype B, UniProt P04585); assay: Integrase inhibition assay (microtiter plate strand transfer, substrate DNA/target DNA, anti-digoxigenin ELISA readout); type: biochemical; settings: concentration of the compound at percent inhibition 50%; OD at 405 nm
Protocol: The inhibitory activities against integrase of the compounds in the present invention have been determined by the assay described below.
Substrate DNA and target DNA, which sequences were indicated below, were synthesized by Amersham Pharmacia Biotech and dissolved in KTE buffer (composition: 100 mM KCl, 1 mM EDTA, 10 mM Tris-HCl (pH 7.6)) at concentration of 2 pmol/μl and 5 pmol/μl, respectively. The DNA solutions were annealed with each complement by slowly cooling after heating.
Streptavidin, obtained from Vector Laboratories, was dissolved in 0.1 M carbonate buffer (composition: 90 mM Na2CO3, 10 mM NaHCO3) at concentration of 40 μg/ml. After coating each well of microtiter plates (obtained from NUNC) with 50 μl of the above solution at 4° C. over night, each well was washed twice with PBS (composition: […], 0.27 mM KCl, 0.43 mM Na2HPO4, 0.14 mM KH2PO4) and blocked with 300 μL of 1% skim milk in PBS for 30 min. Additionally, each well was washed twice with PBS and added 50 μl of substrate DNA solution (2 pmol/μl). The microtiter plates were kept at room temperature for 30 min. Then, each well was washed twice with PBS and once with H2O.
Subsequently, in the each well prepared above were added 45 μl of the reaction buffer prepared from 12 μl of the buffer (composition: 150 mM MOPS (pH 7.2), 75 mM MnCl2, 50 mM 2-mercaptoethanol, 25% glycerol, 500 μg/ml bovine serum albumin-fraction V), 1 μl of target DNA (5 pmol/μl), and 32 μl of the distilled water. Additionally, 6 μl of either a test compound in DMSO or DMSO for positive control (PC) was mixed with the above reaction buffer, then 9 μl of an integrase solution (30 pmol) was added and mixed well. In the well of negative control (NC) was added 9 μl of the integrase dilution buffer (composition: 20 mM MOPS (pH7.2), 400 mM potassium glutamate, 1 mM EDTA, 0.1% NP-40, 20% glycerol, 1 mM DTT, 4 M urea).
The microtiter plates were incubated at 30° C. for 1 hour. The reaction solution was removed and each well was washed twice with PBS. Subsequently, each well of the microtiter plates was filled with 100 μl of anti-digoxigenin antibody labeled with alkaline phosphatase (Sheep Fab fragment: obtained from Boehringer) and incubated at 30° C. for 1 hour. Then, each well was washed twice with 0.05% Tween20 in PBS and once with PBS. Next, 150 μl of the Alkaline phosphatase reaction buffer (composition: 10 mM p-Nitrophenylphosphate (obtained from Vector Laboratories), 5 mM MgCl2, 100 mM NaCl, 100 mM Tris-HCl (pH 9.5)) was added in each well. The microtiter plates were incubated at 30° C. for 2 hours and the reaction was terminated by the addition of 50 μl of 1 N NaOH solution. The optical density (OD) at 405 nm of each well was measured and the percent inhibition was determined by the following expression. The percent inhibition (%)=100[1−{(C abs.−NC abs.)/(PC abs.−NC abs.)}] • C abs.; the OD of the well of the • NC abs.: the OD of the negative control (NC) • PC abs.: the OD of the positive control (PC)
When the percent inhibition (%) is X % at the concentration of x μg/ml and the percent inhibition (%) is Y % at the concentration of y μg/ml, one of which is more than 50% and the other is less than 50%, IC50 can be determined by the following expression. IC50(μg/ml)=x−{(X−50)(x−y)/(X−Y)}

SMILES	melting point	IC50 [1] [nM]
CCOC(=O)c1cc(CC)c2cc(Cc3ccc(F)cc3)cnc2c1O	78 to 80 °C	
O=C(O)c1ccc2[nH]c(CCc3ccc(F)cc3)nc2c1O	152 to 155 °C	
O=C(c1ccccc1)c1cc(C(=O)O)c2cc(Cc3ccc(F)cc3)cnc2c1O	220 to 223 °C	
COC(=O)c1cc(C(=O)Nc2ccccn2)c2cc(Cc3ccc(F)cc3)cnc2c1O	190 to 194 °C	
CCn1c(C)nc2c(O)c(-c3ncc(Cc4ccc(F)cc4)o3)ccc21	150 to 151 °C	
O=C(c1ccc(Cc2ccc(F)cc2)o1)c1cc(Cl)c2cccnc2c1O	126 to 128 °C	
COC(=O)c1cc(Cl)c2[nH]c(Cc3ccc(F)cc3)nc2c1O [Compound I-1]	257 to 260 °C	1610
COC(=O)c1cc(Cl)c2c(nc(Cc3ccc(F)cc3)n2C)c1O [Compound I-6]	198 to 201 °C	1270
O=C(c1cc(Cl)c2[nH]c(Cc3ccc(F)cc3)nc2c1O)N1CCCC1 [Compound I-20]	268 to 272 °C (dec.)	2030
O=C(c1nccs1)c1ccc2[nH]c(Cc3ccc(F)cc3)nc2c1O [Compound I-27]	239 to 240 °C	538
Cc1nc2c(O)c(-c3nnc(Cc4ccccc4)o3)cc(Cl)c2[nH]1 [Compound I-35]	255 to 257 °C	704
Cc1nc2c(O)c(-c3nnc(COc4ccccc4)o3)cc(Cl)c2[nH]1 [Compound I-37]	266 to 268 °C	1540
O=C(c1ccc(Sc2ccc(F)cc2)o1)c1cc(Cl)c2cccnc2c1O [Compound I-63]	120 to 122 °C	1050
O=C(O)c1cc(Cl)c2cc(Cc3ccc(F)cc3)cnc2c1O [Compound I-65]	222 to 224 °C	332
